The values that follow come from patent US6100247A, “Method of treating diabetic neuropathy” (BioNumerik Pharmaceuticals, Inc., priority 1999, dated 2000).

The structures appear in SMILES notation.

The target in data set [1] is T1, aldose reductase (human recombinant, expressed in SF 9 cells) (Homo sapiens, UniProt P15121).
T1 construct: host or cells: SF 9 cells
The experiment in a line: Aldose reductase assay, reduction of glucose to sorbitol (NADPH oxidation, absorbance at 340 nm). The conditions noted are these: Lineweaver Burk plots nearly parallel; glucose and glyceraldehyde substrates. It counts as biochemical. The protocol: Aldose reductase assays were as described in Nishimura C., Yamaoka T., Mizutani M., Yamashita K., Akera T., Tanimoto T., Purification And Characterization Of The Recombinant Human Aldose Reductase Expressed In Baculovirus System, Biochem. Biophys. Acta, Jun. 24, 1991; 1078(2):171-8.
Briefly, Dimesna (0-20 μM) was incubated at 37° C. with aldose reductase (0.0016 units, human recombinant, expressed in SF 9 cells) and NADPH (0.15 mM) in sodium phosphate buffer (100 mM, pH 6.2). To initiate assays, glucose (10-150 mM) was added to reactions and the decrease in absorbance at 340 nm (oxidation of NADPH) was monitored. Assays were run in duplicate or triplicate. Slopes were calculated using Varian-Cary software package 2.0 and averaged. In all cases errors were 4% or less. Lineweaver Burk analysis (Enzyme Kinetics, version 1.61) was used to calculate inhibition constants.

The subject of another data set is mice. As to conditions: mouse, in vivo; cited from earlier work.
Another data set concerns dogs. The conditions noted are these: dog, in vivo; cited from earlier work.
The test system of another data set is humans. As to conditions: in vivo; cited from earlier work.

For `O=S(=O)([O-])CCSSCCS(=O)(=O)[O-].[Na+].[Na+]`, in data set [1], the “Mode of inhibition of the aldose reductase reaction” value was “uncompetitive inhibition”. Moreover, the “Adverse effects after intravenous administration” value in the data set on mice and in the data set on dogs was “no adverse effects” throughout. Besides, the “Adverse effects after administration to humans” value with humans is given as “no adverse effects”.
